The record followed here is US6583154B1, “Compounds and methods which modulate feeding behavior and related diseases” (Amgen Inc., priority 1998, dated 2003).

The subject of data set [1] is pNPY induced feeding. Kind of data set: Icv administration of NPY antagonists against pNPY induced feeding in satiated Long-Evans male rats. Type of data set: in vivo. The note with it: I.C.V. antagonist in DMSO 20 μl, about 15 min later 5 μl pNPY, high sucrose mash, 4 hours post-injection, vehicle 5.29 ± 0.97, * significantly different from vehicle, p < 0.05. The method, then:
Protocol for Icv Administration of NPY Antagonists Against pNPY Induced Feeding in Satiated Long-Evans Male Rats
Adult male Long-Evans rats (approx. 275 g) were obtained from Charles River Laboratories (Wilmington, MA) and given one week to acclimate to the animal facility. Animals were housed individually and given ad-lib access to food and water. After acclimation, animals were anesthetized (75 mg/kg Sodium Nembutal) and implanted with 23 g cannulas (Plastics One, Roanoke, VA) into the right lateral cerebral ventricle. All animals were given at least 1 week post-operative recover before any experiment.
Approximately 16 hours prior to injection, animals were provided with access to 30 grams of a sucrose/condensed milk/rat chow mash along with their regular chow. Ninety minutes prior to injections, regular chow was removed from the cages and animals were provided with a fresh portion of the high sucrose mash. Intracerebroventricular injection of antagonist or vehicle was done in awake, unrestrained animals in a DMSO vehicle in a volume of 20 μl. Approximately 15 minutes after the administration of the antagonist or vehicle, animals were given a second 5 μl injection of either water or pNPY. After the second injection, the portion of high sucrose mash was weighed and total food consumed was measured at 2 and 4 hours post-injection.

The melting point is the temperature, or range, at which the solid turns liquid. As to `Cc1nc(N2CCc3ccccc3C2)c2[nH]c(-c3ccccc3)cc2n1` [Example 2], the melting point was 251 to 253 °C (dec.). In addition, the “4 hr food intake (g ± S.E.M.)” value in data set [1] was 3.35 ± 0.62* g.
